Experimental data reported in patent US20140031227A1, “HERBICIDAL COMPOSITIONS COMPRISING 4-AMINO-3-CHLORO-5-FLUORO-6-(4-CHLORO-2-FLUORO-3-METHOXYPHENYL) PYRIDINE-2-CARBOXYLIC ACID OR A DERIVATIVE THEREOF AND GLYPHOSATE OR GLUFOSINATE” (DOW AGROSCIENCES LLC, priority 2012, published 2014).

What was measured:
[1] = tested on: SCPMA (Schoenoplectus maritimus (L.) Lye or Bolboschoenus maritimus (L.) Palla, sea clubrush); assay: Example II in-water applied mixtures, transplanted paddy rice weeds, greenhouse: SCPMA; type: in vivo; details: Compound A Acid alone
Protocol: Weed seeds or nutlets of the desired test plant species were planted in puddled soil (mud) prepared by mixing a shredded, non-sterilized mineral soil (50.5 percent silt, 25.5 percent clay, and 24 percent sand, with a pH of about 7.6 and an organic matter content of about 2.9 percent) and water at a 1:1 volumetric ratio. The prepared mud was dispensed in 365 mL aliquots into 16-ounce (oz.) non-perforated plastic pots with a surface area of 86.59 square centimeters (cm^2) leaving a headspace of 3 centimeters (cm) in each pot. Mud was allowed to dry overnight prior to planting or transplanting. Rice seeds were planted in Sun Gro MetroMix® 306 planting mixture, which typically has a pH of 6.0 to 6.8 and an organic matter content of about 30 percent, in plastic plug trays. Seedlings at the second or third leaf stage of growth were transplanted into 840 mL of mud contained in 32-oz. non-perforated plastic pots with a surface area of 86.59 cm^2 4 days prior to herbicide application. The paddy was created by filling the headspace of the pots with 2.5 to 3 cm of water. […] The plants were grown for 4-22 days in a greenhouse with an approximate 14 hr photoperiod which was maintained at about 29′C during the day and 26° C. during the night. Nutrients were added as Osmocote® (19:6:12, N:P:K+minor nutrients) at 2 g per 16-oz. pot and 4 g per 32-oz. pot. Water was added on a regular basis to maintain the paddy flood, and supplemental lighting was provided with overhead metal halide 1000-Watt lamps as necessary. The plants were employed for testing when they reached the first through fourth true leaf stage.
(§1) Treatments consisted of the acid or esters of 4-amino-3-chloro-5-fluoro-6-(4-chloro-2-fluoro-3-methoxy-phenyl)pyridine-2-carboxylic acid (compound A) each formulated as an SC (suspension concentrate) and various herbicidal components alone and in combination. Forms of compound A were applied on an acid equivalent basis.
For formulated compounds, a measured amount was placed in an individual 100 or 200 mL glass vial and was dissolved in a volume of 1.25% (v/v) Agri-Dex® crop oil concentrate to obtain application solutions.
Applications were made by injecting with a pipetter appropriate amounts of the application solutions, individually and sequentially, into the aqueous layer of the paddy. Control plants were treated in the same manner with the solvent blank. Applications were made so that all treated plant material received the same concentrations of acetone and crop oil concentrate.
(§2) The treated plants and control plants were placed in a greenhouse as described above and water was added as needed to maintain a paddy flood. After approximately 3 weeks the condition of the test plants as compared with that of the untreated plants was determined visually and scored on a scale of 0 to 100 percent where 0 corresponds to no injury or growth inhibition and 100 corresponds to complete kill.
Colby's equation was used to determine the herbicidal effects expected from the mixtures (Colby, S. R. 1967. Calculation of the synergistic and antagonistic response of herbicide combinations. Weeds 15:20-22.).

[2] = tested on: VIOTR (Viola tricolor L., wild violet); assay: Example IV postemergence foliar-applied mixtures, general weed control, greenhouse: VIOTR; type: in vivo; details: Compound A Benzyl Ester alone
Protocol: Seeds or nutlets of the desired test plant species were planted in Sun Gro Metro-Mix® 360 planting mixture, which typically has a pH of 6.0 to 6.8 and an organic matter content of about 30 percent, in plastic pots with a surface area of 84.6 square centimeters (cm^2). […] The plants were grown for 7-31 days (d) in a greenhouse with an approximate 15 hour (h) photoperiod which was maintained at about 23-29° C. during the day and 22-28° C. during the night. Nutrients (Peters Excel® 15-5-15 5-Ca 2-Mg) and water were added on a regular basis and supplemental lighting was provided with overhead metal halide 1000-Watt lamps as necessary. The plants were employed for testing when they reached the first, second, or third true leaf stage.
as §1, with “the benzyl ester” for “esters”, “(Compound A),” for “(compound A)”, “SC,” for “SC (suspension concentrate)”
Other herbicidal components were applied on an acid equivalent or active ingredient basis and included the 5-enolpyruvylshikimate-3-phosphate synthase (EPSPS)-inhibiting herbicide, glyphosate dimethylamine salt, formulated as Durango DMA® and the glutamine synthase (GS)-inhibiting herbicide, glufosinate ammonium, formulated as Ignite® 280.
For treatments comprised of formulated compounds, measured amounts of compounds were placed individually in 25 mL glass vials and diluted in a volume of 1.25% (v/v) Agri-dex crop oil concentrated to obtain 12× stock solutions. […] Application solutions were prepared by adding an appropriate amount of each stock solution (typically 1 mL) and diluted to the appropriate final concentrations with the addition of 10 mL of an aqueous mixture of 1.25% (v/v) Agri-dex crop oil concentrate so that the final spray solutions contained 1.25% (v/v) Agri-dex crop oil concentrate.
All stock solutions and applications solutions were visually inspected for compound compatibility prior to application. Compound requirements are based upon a 12 mL application volume at a rate of 187 liters per hectare (L/ha). […]
as §2, with “watered by sub-irrigation” for “water was added as needed”, “prevent wash-off of the test compounds.” for “maintain a paddy flood.”, “weeks,” for “weeks”, “kill. […]” for “kill.”

Compound	Visual Weed Control (%) - 21 DAA SCPMA Obs ([1]; 8.75 gae/ha) [%]	Visual Weed Control (%) - 21 DAA SCPMA Obs ([1]; 17.5 gae/ha) [%]	Visual Weed Control (%) - 21 DAA SCPMA Obs ([1]; 35 gae/ha) [%]	Visual Weed Control (%) - 18 DAA VIOTR Obs ([2]; 2 gae/ha) [%]	Visual Weed Control (%) - 18 DAA VIOTR Obs ([2]; 4 gae/ha) [%]
COc1c(Cl)ccc(-c2nc(C(=O)O)c(Cl)c(N)c2F)c1F [Compound A Acid, 4-amino-3-chloro-6-(4-chloro-2-fluoro-3-methoxyphenyl)-5-fluoropyridine-2-carboxylic acid]	0	0	0		
COc1c(Cl)ccc(-c2nc(C(=O)OCc3ccccc3)c(Cl)c(N)c2F)c1F [Compound A Benzyl Ester]				15	20
